Data on 4 molecules can be found in patent publication US7285682B2, “Terphenyl guanidines as β-secretase inhibitors” (Wyeth, priority 2005, dated 2007).

For one series, the target named is human BACE1 (Homo sapiens, UniProt P56817). Description: Fluorescent kinetic assay (BACE-1, FRET peptide substrate WABC-6). It is filed as biochemical. The following applies: 10 nM enzyme, 25 μM substrate WABC-6, 50 mM Na-Acetate pH 4.5, room temperature. Here is the method: Evaluation of BACE-1 Binding Affinity of Test Compounds
human BACE1, sequence (P56817 46-501): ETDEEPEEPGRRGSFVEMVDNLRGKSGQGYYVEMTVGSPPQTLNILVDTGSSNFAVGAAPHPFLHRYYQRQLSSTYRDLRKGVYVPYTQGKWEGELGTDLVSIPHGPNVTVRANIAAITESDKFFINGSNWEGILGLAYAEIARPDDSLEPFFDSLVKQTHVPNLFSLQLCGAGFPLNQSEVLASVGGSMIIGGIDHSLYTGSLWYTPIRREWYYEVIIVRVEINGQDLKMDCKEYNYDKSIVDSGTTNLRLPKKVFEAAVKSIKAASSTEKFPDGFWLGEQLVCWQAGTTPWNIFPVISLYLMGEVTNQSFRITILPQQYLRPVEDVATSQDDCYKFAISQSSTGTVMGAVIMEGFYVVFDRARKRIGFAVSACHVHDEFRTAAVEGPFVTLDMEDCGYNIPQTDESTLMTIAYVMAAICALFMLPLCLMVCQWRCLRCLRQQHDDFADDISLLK
1. Fluorescent Kinetic Assays • Final Assay Conditions: 10 nM human BACE1 (or 10 nM Murine BACE1, 1.5 nM human BACE2), 25 μM substrate (WABC-6, MW 1549.6, from AnaSpec), Buffer: 50 mM Na-Acetate, pH 4.5, 0.05% CHAPS, 25% PBS, room temperature. Na-Acetate was from Aldrich, Cat.# 24,124-5, CHAPS was from Research Organics, Cat. # 1304C 1×, PBS was from Mediatech (Cellgro), Cat# 21-031-CV, peptide substrate AbzSEVNLDAEFRDpa was from AnaSpec, Peptide Name: WABC-6 • Determination of stock substrate (AbzSEVNLDAEFRDpa) concentration: ˜25 mM stock solution is made in DMSO using the peptide weight and MW, and diluted to ˜25 μM (1:1000) in 1×PBS. Concentration is determined by absorbance at 354 nm using an extinction coefficient ε of 18172 M^−1 cm^−1, the concentration of stock substrate is corrected, and the substrate stock stored in small aliquots in −80° C. [Substrate Stock]=ABS^354 nm*10^6/18172 ([…]) The extinction coefficient ε^354 nm was adapted from TACE peptide substrate, which had the same quencher-fluorophore pair. • Determination of Stock Enzyme Concentration: the stock concentration of each enzyme is determined by absorbance at 280 nm using ε of 64150 M^−1 cm^−1 for hBACE1 and MuBACE1, 62870 M^−1 cm^−1 for hBACE2 in 6 M Guanidinium Hydrochloride (from Research Organics, Cat. # 5134G-2), pH ˜6. The extinction Coefficient ε^280 nm for each enzyme was calculated based on known amino acid composition and published extinction coefficients for Trp ([…]) and Tyr ([…]) residues (Anal. Biochem. 182, 319-326). • Dilution and mixing steps: total reaction volume: 100 μL
2× inhibitor dilutions in buffer A (66.7 mM Na-Acetate, pH 4.5, 0.0667% CHAPS) were prepared,
4× enzyme dilution in buffer A (66.7 mM Na-Acetate, pH 4.5, 0.0667% CHAPS) were prepared,
100 μM substrate dilution in 1×PBS was prepared, and […]

With `CC(C)(C)c1ccc(-c2cccc(-c3ccccc3)c2CC(=O)NC(=N)N)cc1` [Example 3, N-[(4-tert-Butyl-1,1′:3′,1″-terphenyl-2′-yl)acetyl]guanidine], the melting point is 171 to 174 °C. Moreover, 13.9 µM corresponded to half-maximal inhibition against human BACE1 (IC50).

With `NC(N)=NC(=O)Cc1c(-c2ccccc2)cccc1-c1ccc(Oc2ccccc2)cc1` [Example 4, N″-[(4-Phenoxy-1,1′:3′,1″-terphenyl-2′-yl)acetyl]guanidine], the IC50 at human BACE1 is 5.95 µM. `N=C(N)NC(=O)Cc1c(-c2ccccc2)cccc1-c1ccccc1.O=C(O)C(F)(F)F` [Example 1, N-(1,1′:3′,1″-Terphenyl-2′-ylacetyl)guanidine TFA salt]: the melting point is 64 to 67 °C. The molecule further showed a half-maximal inhibitory concentration (IC50) against human BACE1 of 15 µM.

`N=C(N)NC(=O)Cc1c(-c2ccccc2)cccc1-c1ccc2ccccc2c1` [Example 2, N-{[3-(2-Naphthyl)-1,1′-biphenyl-2-yl]acetyl}guanidine] yielded a melting point of 36.8 to 36.9 °C. Also, the IC50 against human BACE1 was 29.6 µM.
